Patent publication US4794115A, “Method of treating hyperlipemia” (Terumo Corporation, priority 1985, dated 1988)

Tested on: Wistar-King male rats
Assay: Serum total cholesterol and triglycerides in cholesterol/cholic acid/corn oil-loaded rats after 7 days oral administration
Type: in vivo
Conditions: once a day for 7 days, 4 hours after last administration, mean of 6 rats; for Serum lipid level, total cholesterol: control 210.0; for Serum lipid level, triglyceride: control 621.7
Experimental: Wistar-King male rats weighing 170 g are orally administered with 5% acacia gum suspension of the compound obtained in Example 1 or 2. Thirty minutes thereafter, a mixture of 10% cholesterol, 1% cholic acid and corn oil is orally administered at a dose of 10 ml/kg.
The above-described administration is made once a day for consecutive 7 days, and 4 hours after the last administration blood is drawn from the abdominal large artery of the rats under ether anesthesia. The blood is centrifuged at 1630×g at 4° C. for 10 min. to isolate serum. Measurements were made on serum levels of total cholesterol and triglycerides by means of serum lipid reagents, V-cholestase (Nissui, trade name for the total cholesterol) and V-Triglase (Nissui, trade name for the triglycerides). Results are shown in Table 1, in which mean values for a group of 6 animals are shown.

Row | Compound | Serum lipid level, total cholesterol (dose 1.2 mM/kg) [mg/dL] | Serum lipid level, triglyceride (dose 1.2 mM/kg) [mg/dL] | Serum lipid level, total cholesterol (dose 2.4 mM/kg) [mg/dL] | Serum lipid level, triglyceride (dose 2.4 mM/kg) [mg/dL]
1 | CC/C=C\C/C=C\C/C=C\CCCCCCCC(=O)NCCOC(=O)c1cccnc1 [Example 1, N-(9,12,15-octadecatrienoyl)-2-aminoethyl nicotinate] | 198.9 | 350.1 | 146.6 | 258.4
2 | O=C(O)c1cccnc1 [Nicotinic acid, reference compound] |  |  | 195.4 | 312.2
3 | CC/C=C\C/C=C\C/C=C\C/C=C\C/C=C\CCCC(=O)NCCOC(=O)c1cccnc1 [Example 2, N-(5,8,11,14,17-eicosapentaenoyl)-2-aminoethyl nicotinate] | 194.8 | 296.4 | 130.4 | 202.8
